Test results from patent US10940139B2, “Compounds that interact with the Ras superfamily for the treatment of cancers, inflammatory diseases, rasopathies, and fibrotic disease” (Shy Therapeutics LLC, priority 2017, dated 2021).

Tests used:
[1] = tested on: MIA-PACA2 pancreatic cancer cell lines; test: Cell proliferation assay (CellTiter 96 AQueous One); assay type: cell-based; settings: Homo sapiens, MIA PaCa-2; for IC50: MIA-PACA2, compound tested under both conditions, which assay gave the IC50 is not stated; for inhibition at 30 µM: MIA-PACA2
[2] = tested on: MIA-PACA2 pancreatic cancer cell lines; test: Cell proliferation assay, alternate assay conditions (DAPI fluorescence); assay type: cell-based; settings: Homo sapiens, MIA PaCa-2; for inhibition at 10 µM: * = tested at 10 μM, alternate conditions, MIA-PACA2; for IC50: MIA-PACA2, same assay as the % inhibition (alternate conditions)
Protocol: Cell lines: Tumor-derived pancreatic cancer cell lines MIA-PACA2 were purchased from ATCC and grown in complete DMEM-High Glucose medium supplemented with penicillin (100 U/mL), streptomycin (100 μg/mL), and 10% heat-inactivated FBS at 37° C. in a humidified incubator with 5% CO2.
Method: Cells are plated at 4000 cells/well density in 96-wells plate. The next day tested small molecules are added to the cells in the final concentration of 10 μM in the presence of 0.3% DMSO and 10% FBS. After small molecules addition, cells are incubated for 4 days at 37° C. in a humidified incubator with 5% CO2. For IC50 value determination, serial dilutions of compounds were added to cells under the same conditions.
Assay: At the end of the incubation period, cell cultures are fixed with a 50-50 mixture (v/v) acetone-methanol for 10 minutes at −20° C., followed by rehydration in PBS for 10 minutes at room temperature. After rehydration, cells are stained with DAPI (1 μg/ml) in PBS for 10 minutes at room temperature, followed by 3 washes with PBS. After staining, DAPI fluorescence is recorded (358 nm excitation/461 nm emission) with the 96-well plate reader Molecular Devices Spectramax M3; degree of small mole-cule-dependent proliferation inhibition is calculated from raw data assuming No Serum cells value as 100%.

[3] = target: GTP binding domain of Ras; settings: literature, kinetic and filter binding measurements with radiolabeled GDP and GTP; cited from earlier work

Row | Structure (SMILES) | inhibition at 10 µM [2] | also measured
1 | CC(C)COc1ccc(-c2csc3c(O)nc(-c4ccccn4)nc23)cn1 [drawing 1753] | 76 to 100% | IC50 [1]: 501 to 1000 nM; inhibition at 30 µM [1]: 76 to 100%
2 | Nc1nc2c(ncn2[C@@H]2O[C@H](COP(=O)(O)OP(=O)(O)O)[C@@H](O)[C@H]2O)c(=O)[nH]1 [GDP] |  | affinity for the GTP binding domain of Ras [3]: single to double digit picomolar
3 | COCc1ccc(-c2csc3c(O)nc(-c4ccccn4)nc23)cc1F [drawing 1722] | 76 to 100% | IC50 [1]: < 100 nM; inhibition at 30 µM [1]: 76 to 100%
4 | COCCNc1nc(-c2cccc(N)n2)nc2sc(-c3ccccc3)c(-c3ccccc3)c12 [drawing 1893] | 76 to 100% | 
5 | COCCNc1nc(-c2nccn2C)nc2sc(-c3ccccc3)c(-c3ccccc3)c12 [drawing 1837] | 76 to 100% | IC50 [2]: 501 to 1000 nM
6 | CCOCCNc1nc(-c2nccn2C)nc2sc(-c3ccccc3)c(-c3ccccc3)c12 [drawing 1877] | 76 to 100% | IC50 [2]: 501 to 1000 nM
7 | Cc1ccc(-c2cc3nc(-c4ccccn4)nc(O)c3s2)cc1 [drawing 1857] | 76 to 100% | 
8 | Cc1ccc(-c2csc3c(O)nc(-c4ccccn4)nc23)cc1 [drawing 1862] | 76 to 100% | 
9 | Oc1nc(-c2ccccn2)nc2cc(-c3ccccc3)sc12 [drawing 1864] | 76 to 100% | 
10 | CC(C)COc1ccc(-c2csc3c(O)nc(-c4nccn4C)nc23)cn1 [drawing 1914] | 76 to 100% | IC50 [2]: 100 to 500 nM
11 | Nc1nc(O)c2sc(-c3cccc(C(=O)NCc4cccc(O)n4)c3)cc2n1 [drawing 1848] | 1 to 25% | 
12 | COCCNc1nc(-c2nccn2C)nc2sc(-c3ccccc3)c(-c3ccccn3)c12 [drawing 1924] | 76 to 100% | IC50 [2]: 501 to 1000 nM
13 | Cc1sc2c(O)nc(-c3nccn3C)nc2c1-c1ccc(OC(C)C)c(F)c1 [drawing 1912] | 76 to 100% | 
14 | Oc1nc(-c2ccccn2)nc2cc(-c3ccccc3Cl)sc12 [drawing 1858] | 76 to 100% | 
15 | Oc1nc(-c2ccccn2)nc2c(-c3cncnc3)csc12 [drawing 1801] | 0% | 
16 | Oc1nc(-c2ccccn2)nc2c(-c3ccccn3)csc12 [drawing 1772] | 76 to 100% | IC50 [1]: > 1000 nM; inhibition at 30 µM [1]: 76 to 100%
17 | COc1ccc(-c2cc3nc(-c4ccccn4)nc(O)c3s2)cc1 [drawing 1865] | 76 to 100% | 
18 | Cn1ccnc1-c1nc(O)c2sc(-c3ccccc3)c(-c3ccccc3Cl)c2n1 [drawing 1897] | 76 to 100% | IC50 [2]: 100 to 500 nM
19 | Oc1nc(-c2ccccn2)nc(Oc2cccc(C(F)(F)F)c2)c1O [drawing 1860] | 76 to 100% | 
20 | CCN(CC)CCOc1nc(-c2nccn2C)nc2sc(-c3ccccc3)c(-c3ccccc3)c12 [drawing 1875] | 76 to 100% | 

Row | Structure (SMILES) | inhibition at 10 µM [2] | also measured
21 | Cn1ccnc1-c1nc(O)c2sc(-c3ccccc3)c(-c3ccccc3)c2n1 [drawing 1890] | 51 to 75% | 
22 | Oc1nc(-c2ccccn2)nc2c(Br)c(-c3ccccc3)sc12 [drawing 1855] | 76 to 100% | 
23 | Cn1ccnc1-c1nc(O)c2scc(-c3ccc(C(C)(C)C)cc3)c2n1 [drawing 1921] | 76 to 100% | 
24 | COc1ccc(-c2c(C)sc3c(O)nc(-c4nccn4C)nc23)cn1 [drawing 1903] | 25 to 50% | 
25 | Cn1cnc(-c2nc(O)c3sc(-c4ccncc4)c(-c4ccccc4)c3n2)c1 [drawing 1851] | 76 to 100% | 
26 | COc1cnc(CNC(=O)c2csc3c(O)nc(-c4ccccn4)nc23)[nH]c1=O [drawing 1822] | 51 to 75% | 
27 | COCCNc1nc(-c2nccn2C)nc2sc(-c3ccc(OC)cc3)c(-c3ccccc3)c12 [drawing 1899] | 76 to 100% | IC50 [2]: 100 to 500 nM
28 | Cn1ccnc1-c1nc(O)c2scc(-c3cccc(C(F)(F)F)c3)c2n1 [drawing 1900] | 76 to 100% | IC50 [2]: > 1000 nM
29 | Cn1ccnc1-c1nc(O)c2scc(-c3ccccc3Cl)c2n1 [drawing 1917] | 76 to 100% | 
30 | COCCNc1nc(-c2nccn2C)nc2sc(-c3ccccc3)c(-c3ccc(OC)cc3)c12 [drawing 1891] | 76 to 100% | IC50 [2]: 501 to 1000 nM
31 | COCCNc1nc(-c2nccn2C)nc2sc(-c3cccc(OC)c3)c(-c3ccccc3)c12 [drawing 1888] | 76 to 100% | 
32 | Oc1nc(-c2ccccn2)nc2c(-c3cccc(C(F)(F)F)c3)csc12 [drawing 1749] | 76 to 100% | IC50 [1]: 100 to 500 nM; inhibition at 30 µM [1]: 76 to 100%
33 | COCCNc1nc(-c2nccn2C)nc2sc(-c3ccccc3Cl)c(-c3ccccc3)c12 [drawing 1883] | 76 to 100% | IC50 [2]: 501 to 1000 nM
34 | COCCNc1nc(-c2nccn2C)nc2sc(C)c(-c3ccccc3)c12 [drawing 1886] | 76 to 100% | IC50 [2]: 501 to 1000 nM
35 | Cc1sc2c(O)nc(-c3ccccn3)nc2c1-c1ccncc1 [drawing 1806] | 76 to 100% | 
36 | Cn1ccnc1-c1nc(O)c2c(-c3ccccc3)c(-c3ccccc3)sc2n1 [drawing 1838] | 76 to 100% | 
37 | COCCNc1nc(-c2ccccn2)nc2sc(-c3ccccc3)c(-c3ccccn3)c12 [drawing 1922] | 76 to 100% | 
38 | Cc1nn(C(C)C)cc1-c1csc2c(O)nc(-c3ccccn3)nc12 [drawing 1803] | 76 to 100% | 
39 | Oc1nc(-c2ccccn2)nc2c(C3CCCC3)csc12 [drawing 1812] | 76 to 100% | 
40 | COCCCNc1nc(-c2nccn2C)nc2sc(-c3ccccc3)c(-c3ccccc3)c12 [drawing 1872] | 76 to 100% | IC50 [2]: 501 to 1000 nM

Row | Structure (SMILES) | inhibition at 10 µM [2] | also measured
41 | COCCNc1nc(-c2nccn2C)nc2sc(-c3ccccc3)c(-c3ccncc3)c12 [drawing 1898] | 76 to 100% | 
42 | NC(=O)C1CCCN1C(=O)c1cccc(-c2cc3nc(N)nc(O)c3s2)c1 (centres unmarked) [drawing 1846] | 51 to 75% | 
43 | CC(O)CNc1nc(-c2nccn2C)nc2sc(-c3ccccc3)c(-c3ccccc3)c12 (centres unmarked) [drawing 1871] | 76 to 100% | 
44 | COCCNc1nc(-c2ccncn2)nc2sc(-c3ccccc3)c(-c3ccccc3)c12 [drawing 1876] | 51 to 75% | 
45 | COCC(C)Nc1nc(-c2nccn2C)nc2sc(-c3ccccc3)c(-c3ccccc3)c12 (centres unmarked) [drawing 1879] | 76 to 100% | IC50 [2]: 501 to 1000 nM
46 | Cn1ccnc1-c1nc(O)c2sc(-c3ccccc3)c(-c3cccc(C(F)(F)F)c3)c2n1 [drawing 1894] | 25 to 50% | 
47 | COCCN(C)c1nc(-c2nccn2C)nc2sc(-c3ccccc3)c(-c3ccccc3)c12 [drawing 1868] | 76 to 100% | IC50 [2]: > 1000 nM
48 | Oc1nc(-c2ccccn2)nc2cc(-c3ccc(-c4ccccc4)cc3)sc12 [drawing 1861] | 76 to 100% | 
49 | Cn1ccnc1-c1nc(O)c2scc(-c3ccc(F)cc3F)c2n1 [drawing 1918] | 76 to 100% | 
50 | CC(C)COc1ccc(-c2csc3c(O)nc(-c4cn(C)cn4)nc23)cn1 [drawing 1907] | 76 to 100% | 
51 | Nc1nc(O)c2sc(-c3cccc(C(=O)N4CCC(O)C4)c3)cc2n1 (centres unmarked) [drawing 1845] | 1 to 25% | 
52 | Oc1nc(-c2ccccn2)nc2c(CC3CNC3)csc12 [drawing 1821] | 25 to 50% | 
53 | COC1CCN(c2nc(-c3nccn3C)nc3sc(-c4ccccc4)c(-c4ccccc4)c23)C1 (centres unmarked) [drawing 1873] | 76 to 100% | IC50 [2]: 501 to 1000 nM
54 | COCC(C)Nc1nc(-c2ccccn2)nc(C(=O)NCCCc2c[nH]cn2)c1Oc1ccccc1 (centres unmarked) [drawing 1852] | 76 to 100% | 
55 | Cn1ccnc1-c1nc(NCCCO)c2c(-c3ccccc3)c(-c3ccccc3)sc2n1 [drawing 1881] | 76 to 100% | 
56 | Cn1cnc(-c2nc(O)c3c(-c4ccccc4)c(-c4ccncc4)sc3n2)c1 [drawing 1830] | 76 to 100% | 
57 | COc1cnc(CNC(=O)c2csc3nc(-c4ccccn4)nc(N)c23)[nH]c1=O [drawing 1819] | 0% | 
58 | COCCNc1nc(-c2cn(C)cn2)nc2sc(C)c(-c3ccccc3)c12 [drawing 1887] | 76 to 100% | 
59 | COCCNc1nc(-c2ccccn2)nc(-c2cccc(OCCN(C)C)c2)c1Oc1ccccc1 [drawing 1831] | 76 to 100% | 
60 | COCCNc1nc(-c2nccn2C)nc2sc(-c3ccccc3)c(-c3ccccc3Cl)c12 [drawing 1882] | 76 to 100% | IC50 [2]: > 1000 nM
